Entries after “also recorded” stand apart in the source; their conditions may differ. Like-named read-outs stand apart in the source and are kept apart here. *: point of attachment. pamidronate = 1-hydroxy-1,1-bisphosphonate, amide on Lys carboxyl, O=P(O)(O)C(O)(CCN*)P(=O)(O)O; BHQ‑1 = Black Hole Quencher-1; βAla = NCCC(=O)O
Columns and labels:
[1] = cited from earlier work
[2] = biological target: T1, Cathepsin K (Homo sapiens, UniProt P43235); settings: values found in literature; cited from earlier work
T1 construct: purchased Enzo Life Sciences
T1 sequence (P43235 115-329): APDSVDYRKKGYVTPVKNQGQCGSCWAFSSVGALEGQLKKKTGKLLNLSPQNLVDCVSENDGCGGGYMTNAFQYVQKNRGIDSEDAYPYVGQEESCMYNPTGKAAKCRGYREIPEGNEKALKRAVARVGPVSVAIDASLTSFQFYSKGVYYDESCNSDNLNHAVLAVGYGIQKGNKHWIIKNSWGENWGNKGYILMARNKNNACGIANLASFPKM

[3] = biological target: T1, Cathepsin K; assay: Enzyme studies: cleavage of the probe by activated cathepsin K, initial rates, Lineweaver-Burke plot; format: biochemical
Method: Kinetic parameters Kcat and Km were determined from initial rates at 37° C. and pH 5.5 in a buffer consisting of 50 mM sodium acetate buffer with 2.5 mM EDTA, 1 mM DTT and 0.01% TRITON X-100®. Enzyme concentration was 2.5 nM, substrate concentration ranged from 0.0781 to 2.50 μM. Fluorescence measurements were done every 1 min using a Biotek Synergy H4 plate reader with black Corning 3720 96-well plates. Parameters were determined using a Lineweaver-Burke plot. Fluorescence calibration was obtained using compound 9a at concentrations between 0.00977 and 2.5 μM. Background fluorescence was estimated using intact 10a at concentrations ranging from 0.0781 to 2.50 μM.
Cathepsin K was prepared by activation of procathepsin K purchased from Enzo Life Sciences. Activation was carried out by adding […], pH 3.5 sodium acetate buffer in a 1:2 ratio to as-received proenzyme solution and leaving at 21° C. for 30 min before dilution with assay buffer. Solutions of activated enzyme were stored on ice and used within 10 min. Buffers were prepared in house according to concentrations provided by Enzo Life Sciences.

[4] = Adsorption on calcium phosphate substrates; format: physicochemical
[5] = system: monocyte-derived human osteoclasts; assay: Osteoclasts cultured on calcium phosphate coated microwells preadsorbed with probe, fluorescence timelapse; format: cell-based
From the text: We attribute this to a lack of calcium phosphate for the probe to bind to. In several cases, osteoclasts can be seen migrating on the surface without completely dissolving the calcium phosphate and leaving a trail of enhanced fluorescence in their wake (see, e.g., FIG. 4). This is how the probe is presumed to function in vivo, by fluorescently labeling any regions exposed to osteoclast resorptive activity. […] Another phenomenon observed in all videos was a transient decrease in fluorescence within the boundaries of the osteoclast sealing zone, seen as rapidly moving dark areas around the cells (see, e.g., FIG. 5). This effect was expected and results from the pH sensitivity of carboxyfluorescein. The pH under an active osteoclast has been reported to be as low as 4.5 (Teitelbaum (2000) Science, 289(5484): 1504-1508). Carboxyfluorescein cyclizes to a nonfluorescent form when protonated and has a pKa of approximately 6.5 (Han & Burgess (2010) Chem. Rev. 110: 2709-2728; Massou et al. (2000) Biochem. Educ. 28:171-173). Thus fluorescent intensity is decreased. This is further evidence that the probe is exposed to the sub-osteoclast environment as intended. Another phenomenon observed in the timelapses was concentrated fluorescent intensity in cells themselves, both attached and detached from the substrate. […]

[6] = system: human osteoclasts; assay: Human osteoclasts co-cultured with human multiple myeloma cells (8226-LUC); format: cell-based; settings: co-cultured with 8226-LUC
[7] = system: osteoclast activity; assay: Fluorescence imaging of maxilla ex vivo in mice after tooth extraction; settings: young mice, 5 nMol/mouse
From the text: FIG. 8, panels a-c, show White light (left) and fluorescence (right) images of mice after tooth extraction. Panel a) Vehicle control; Panel b) OFS-1 (5a) 5 nMol/mouse; Panel c) Positive control (4a) 5 nMol/mouse

[8] = system: 8226-LUC human multiple myeloma cells; assay: OFS-1 activation by multiple myeloma in humanized BLT mice; format: in vivo; settings: humanized mice carrying 8226-LUC cells
Method: FIG. 9, panels a-c, illustrates OFS-1 activation by multiple myeloma in humanized mice. 8226-LUC human multiple myeloma cells were injected to humanized BLT mice.

## O=C(O)c1ccc2c(c1)C(=O)OC21c2ccc(O)cc2Oc2cc(O)ccc21 [Carboxyfluorescein, 5-carboxyfluorescein]
[1]
  pKa: approximately 6.5

## Abz-HPGGPQ-EDN2Ph
[2]
  Kcat (literature value): 0.5 ± 0.03 s⁻¹
  Km: 1.2 ± 0.2 µM

## OFS-1: bone-targeted pamidronate probe with 5-FAM fluorophore and BHQ-1 quencher linked by cathepsin K peptide Gly-His-Pro-Gly-Gly-Pro-Gln-Gly ({BHQ‑1}-GHPGGPQG-{βAla-K(5-FAM)-pamidronate})
[3]; in solution at 37° C., pH 5.5
  Kcat: 0.2 ± 0.03 s⁻¹
  Km: 1.7 ± 0.2 µM
[3]; purified cathepsin K
  Cleavage/activation by cathepsin K: cleaved by cathepsin K albeit at a slower rate; also recorded: activated by purified cathepsin K
[4]
  Adsorption on calcium phosphate substrates: avidly adsorbed on calcium phosphate substrates; also recorded: found to adsorb on calcium phosphate substrates
[5]
  Fluorescent signal in response to osteoclast resorptive activity: give a fluorescent signal in response to resorptive activity
[5]; listed as USC FRET-1
  Fluorescent signal in response to osteoclast resorptive activity: increased fluorescence around cells that were actively resorbing hydroxyapatite (HA)
[6]
  OFS-1 activation by osteoclasts in co-culture with multiple myeloma cells: significantly increased OFS-1 activation
[7]
  Fluorescent signal in maxilla ex vivo after tooth extraction: increased fluorescent signal in maxilla ex vivo; also recorded: enhanced signal in response to tooth extraction
[8]
  Probe activation / fluorescent signal at multiple myeloma engrafted sites: localized at the multiple myeloma (8226-LUC) engrafted site; also recorded: Strong activation

Source: US11219697B2, “Osteoadsorptive fluorogenic substrate of cathepsin k for imaging osteoclast activity and migration” (The Regents of the University of California, priority 2017, dated 2022)
